Assay results taken from patent publication US20240067702A1, “LACTAM-MODIFIED P[…]” (DONGBAO PURPLE STAR (HANGZHOU) BIOPHARMACEUTICAL CO., LTD., priority 2020, published 2024).
*1 amine or outer side, *2 acyl side, *3 side chain or, on linkers, in order; H or OH if unused. Where a SMILES comes first, the peptide text is derived from it. Bridges are numbered along the chain shown (N, C = ends). Side-chain parts run from the residue outwards. [ ]: non-standard residue; d: D form. The star is where a group is joined. C20 diacid = O=C(O)CCCCCCCCCCCCCCCCCCC(=O)*; γGlu = O=C(O)[C@H](CCC(=O)[*:2])N[*:1]; AEEA = NCCOCCOCC(=O)O; Aib = CC(C)(N)C(=O)O

Assays:
[1] = Pharmacokinetic evaluation in cynomolgus monkeys; assay type: in vivo; settings: cynomolgus monkey, 0.02 mg/kg, single SC 0.02 mpk; for half-life: read-out: Half-life T1/2 (converted); for AUC(0-t): read-out: SC Concentration Integral AUC0-240 h
Protocol: To test the pharmacokinetics of compounds in cynomolgus monkeys in vivo
The pharmacokinetic characteristics of the compounds in mammals after intravenous injection and subcutaneous injection were tested according to the standard protocol. In the experiment, the candidate compounds were formulated into clear solutions, and a single subcutaneous injection (SC, 0.02 mpk) was given to the cynomolgus monkeys. The vehicle for subcutaneous injection was citrate buffer (20 mM, pH=7). Whole blood was collected and prepared to obtain plasma. Drug concentration was analyzed by LC-MS/MS method, and pharmacokinetic parameters were calculated by Phoenix WinNonlin software.

[2] = Pharmacokinetic evaluation in SD rats; assay type: in vivo; settings: rat, 0.048 mg/kg, single SC 0.048 mpk; for half-life: read-out: Half-life T1/2 (converted); for Cmax: read-out: Maximum Plasma Concentration; for AUC(0-t): read-out: SC Concentration Integral AUC0-72 h
Protocol: To test the pharmacokinetics of compounds in SD rats in vivo
The pharmacokinetic characteristics of the compounds in rodents after subcutaneous injection were tested according to the standard protocol. In the experiment, the candidate compounds were formulated into clear solutions, and a single subcutaneous injection (SC, 0.048 mpk) was given to the rats. The injection vehicle was citrate buffer (20 mM, pH=7). Whole blood was collected and prepared to obtain plasma. Drug concentration was analyzed by LC-MS/MS method, and pharmacokinetic parameters were calculated by Phoenix WinNonlin software.

[3] = Plasma stability (PLS) test, mouse plasma; assay type: in vitro ADME; settings: up to 120 min, read-out: PLS (H/M) T1/2; for half-life at 2 μM: pH 7.4, 37° C.
Protocol: To study the stability of test compounds in the plasma of normal mice.
1. Before the experiment, the coagulated frozen plasma was thawed in a water bath at 37° C. Plasma was centrifuged at 4000 rpm for 5 min. If there was blood clot, the blood clot was removed and the pH value was adjusted to 7.4±0.1.
2. Preparation of the test compound solution: 100 μM of the solution was prepared by dilution with DMSO.
3. 98 μL of blank control plasma was added to 2 μL of the test compound solution (100 μM), so that the final concentration of the mixed solution of the two reached 2 μM, and the mixed solution was placed in a 37° C. water bath for incubation.
4. At each time point (0, 10, 30, 60, and 120 min), 1(X) μL of H3PO4 solution and 800 μL of stop solution (200 ng/mL of tolbutamide and 200 ng/mL of labetalol in 100% methanol solution) were added to precipitate protein, and mixed thoroughly.
5. The samples were centrifuged at 4000 rpm for 20 min, and 1(X) μL of supernatant was taken from each well for LC-MS/MS analysis.

[4] = Plasma protein binding (PPB) test, mouse; assay type: in vitro ADME
Protocol: To study the binding of the test compounds to human/mouse plasma albumin.
1. Matrix preparation: On the day of the experiment, the plasma was thawed in cold water and centrifuged at 3220 rpm for 5 min to remove all blood clots. The pH of the obtained plasma was measured and adjusted to 7.4±0.1 using 1% phosphoric acid or 1N sodium hydroxide as needed.
2. Dilution steps of the test compounds: The test compounds were dissolved in dimethyl sulfoxide (DMSO) to prepare stock solutions at concentrations of 10 mM and 2 mM, respectively. A 40 μM working solution was prepared by diluting 2 μL of the stock solution (2 mM) with 98 μL of DMSO. A 400 μM working solution of the control compound was prepared by diluting 10 μL of the stock solution with 240 μL of DMSO. The working solution of the compound (5 μL) was mixed with the blank matrix (995 μL) at a ratio of 1:200 to prepare the loading matrix.
3.1 An equal amount of 30 μL of the loading matrix (n=2) was transferred to the sample collection plate to prepare samples of time 0 (TO) for residue determination. The samples were immediately matched to the corresponding blank buffer in a final volume of 60 μL with a 1:1 volume ratio of plasma to buffer in each well. Then, 60 μL of 4% H3PO4 in H2O and 480 μL of stop solution containing an internal standard were then added to the TO samples of the test compounds. They were then stored at 2-8° C. with other samples pending for further processing.
3.2 The remaining plasma samples were pre-incubated in a carbon dioxide incubator at 37±1° C. for 30 min. The prepared protein-free samples (F samples) and loading matrix samples (230 μL) were transferred to polycarbonate tubes (n=2) and ultracentrifuged at 37° C. and 155000×g (35000 rpm) for 4 hours.
3.3 To prepare T samples (test samples), an additional matrix-containing sample was transferred to a separate 96-well plate (sample incubation plate) and incubated at 37° C. for 4 hours.
3.4 After centrifugation, 30 μL of protein-free sample and 30 μL of T sample were transferred from the second layer of supernatant (below the upper layer) to a new sample collection plate. Each sample was mixed with the corresponding blank buffer or matrix in a final volume of 60 μL with a matrix:buffer volume ratio of 1:1. 60 μL of 4% H3PO4 aqueous solution and 480 μL of stop solution (containing internal standard) were added to all samples. The mixture was centrifuged at 4000 rpm for 20 min, and 100 μL of the supernatant of each sample was taken for LC-MS/MS analysis.

SMILES | Cmax ([1]; plasma) | Tmax ([1]; plasma) | half-life ([1]; plasma) | AUC(0-t) ([1]; plasma) | half-life ([2]; plasma) | Cmax ([2]; plasma) | AUC(0-t) ([2]; plasma) | half-life at 2 μM [3] | Cmax ([1]; in vivo) | Tmax ([1]; in vivo) | half-life ([1]; in vivo) | AUC(0-t) ([1]; in vivo) | fraction unbound ([4]; ultracentrifugation, read-out: PPB % unbound (H/M)) | half-life ([2]; in vivo) | AUC(0-t) ([2]; in vivo) | half-life ([3]; 2 μM, 37° C.) | fraction unbound at 4 h, 0.2 μM ([4]; pH 7.4, ultracentrifugation)
CC[C@H](C)[C@H](NC(=O)[C@H](CC(C)C)NC(=O)[C@H](Cc1c[nH]c2ccccc12)NC(=O)[C@@H]1CCC(=O)NCCCC[C@H](NC(=O)[C@H](CCC(N)=O)NC(=O)[C@H](C)NC(=O)[C@H](CCCCNC(=O)COCCOCCNC(=O)COCCOCCNC(=O)CC[C@H](NC(=O)CCCCCCCCCCCCCCCCCCC(=O)O)C(=O)O)NC(=O)[C@H](CCCCN)NC(=O)[C@H](CC(=O)O)NC(=O)[C@H](CC(C)C)NC(=O)C(C)(C)NC(=O)[C@@H](NC(=O)[C@H](CO)NC(=O)[C@H](Cc2ccc(O)cc2)NC(=O)[C@H](CC(=O)O)NC(=O)[C@H](CO)NC(=O)[C@@H](NC(=O)[C@H](Cc2ccccc2)NC(=O)[C@@H](NC(=O)CNC(=O)[C@H](CCC(=O)O)NC(=O)C(C)(C)NC(=O)[C@@H](N)Cc2ccc(O)cc2)[C@@H](C)O)[C@@H](C)O)[C@@H](C)CC)C(=O)N[C@@H](C)C(=O)N[C@@H](Cc2ccccc2)C(=O)N[C@@H](C(C)C)C(=O)N1)C(=O)N[C@@H](C)C(=O)NCC(=O)NCC(=O)N1CCC[C@H]1C(=O)N[C@@H](CO)C(=O)N[C@@H](CO)C(=O)NCC(=O)N[C@@H](C)C(=O)N1CCC[C@H]1C(=O)N1CCC[C@H]1C(=O)N1CCC[C@H]1C(=O)N[C@@H](CO)C(N)=O [WX-001] (H-Y[Aib]EGTFTSDYSI[Aib]LDKK([AEEA-AEEA-γGlu-C20 diacid])AQKAFVEWLIAGGPSSGAPPPS-NH2; lactam 20-24) | 30 nM | 21 h | 80 h | 3.97 µM·h | 12 h | 22 nM | 0.728 µM·h | > 4.82 h | – | – | – | – | – | – | – | – | –
CC[C@H](C)[C@H](NC(=O)[C@H](CC(C)C)NC(=O)[C@H](Cc1c[nH]c2ccccc12)NC(=O)[C@@H]1CCC(=O)NCCCC[C@H](NC(=O)[C@H](CCC(N)=O)NC(=O)[C@H](C)NC(=O)[C@H](CCCCNC(=O)COCCOCCNC(=O)COCCOCCNC(=O)CC[C@H](NC(=O)CC[C@H](NC(=O)CCCCCCCCCCCCCCCCCCC(=O)O)C(=O)O)C(=O)O)NC(=O)[C@H](CCCCN)NC(=O)[C@H](CC(=O)O)NC(=O)[C@H](CC(C)C)NC(=O)C(C)(C)NC(=O)[C@@H](NC(=O)[C@H](CO)NC(=O)[C@H](Cc2ccc(O)cc2)NC(=O)[C@H](CC(=O)O)NC(=O)[C@H](CO)NC(=O)[C@@H](NC(=O)[C@H](Cc2ccccc2)NC(=O)[C@@H](NC(=O)CNC(=O)[C@H](CCC(=O)O)NC(=O)C(C)(C)NC(=O)[C@@H](N)Cc2ccc(O)cc2)[C@@H](C)O)[C@@H](C)O)[C@@H](C)CC)C(=O)N[C@@H](C)C(=O)N[C@@H](Cc2ccccc2)C(=O)N[C@@H](C(C)C)C(=O)N1)C(=O)N[C@@H](C)C(=O)NCC(=O)NCC(=O)N1CCC[C@H]1C(=O)N[C@@H](CO)C(=O)N[C@@H](CO)C(=O)NCC(=O)N[C@@H](C)C(=O)N1CCC[C@H]1C(=O)N1CCC[C@H]1C(=O)N1CCC[C@H]1C(=O)N[C@@H](CO)C(N)=O [WX-002] (H-Y[Aib]EGTFTSDYSI[Aib]LDKK([AEEA-AEEA-γGlu-γGlu-C20 diacid])AQKAFVEWLIAGGPSSGAPPPS-NH2; lactam 20-24) | – | – | – | – | – | 14 nM | – | – | 33 nM | 29 h | 81 h | 4.58 µM·h | 0.0021 | 17 h | 1.32 µM·h | > 4.82 h | –
CC[C@H](C)[C@H](NC(=O)[C@H](CC(C)C)NC(=O)[C@H](Cc1c[nH]c2ccccc12)NC(=O)[C@@H]1CCC(=O)NCCCC[C@H](NC(=O)[C@H](CCC(N)=O)NC(=O)[C@H](C)NC(=O)[C@H](CCCCNC(=O)COCCOCCNC(=O)COCCOCCNC(=O)CC[C@H](NC(=O)CCCCCCCCCCCCCCCCCCC(=O)O)C(=O)O)NC(=O)[C@H](CCCCN)NC(=O)[C@H](CC(=O)O)NC(=O)[C@H](CC(C)C)NC(=O)C(C)(C)NC(=O)[C@@H](NC(=O)[C@H](CO)NC(=O)[C@H](Cc2ccc(O)cc2)NC(=O)[C@H](CC(=O)O)NC(=O)[C@H](CO)NC(=O)[C@@H](NC(=O)[C@H](Cc2ccccc2)NC(=O)[C@@H](NC(=O)CNC(=O)[C@H](CCC(=O)O)NC(=O)C(C)(C)NC(=O)[C@@H](N)Cc2ccc(O)cc2)[C@@H](C)O)[C@@H](C)O)[C@@H](C)CC)C(=O)N[C@@H](CCC(=O)O)C(=O)N[C@@H](Cc2ccccc2)C(=O)N[C@@H](C(C)C)C(=O)N1)C(=O)N[C@@H](C)C(=O)NCC(=O)NCC(=O)N1CCC[C@H]1C(=O)N[C@@H](CO)C(=O)N[C@@H](CO)C(=O)NCC(=O)N[C@@H](C)C(=O)N1CCC[C@H]1C(=O)N1CCC[C@H]1C(=O)N1CCC[C@H]1C(=O)N[C@@H](CO)C(N)=O [WX-005] (H-Y[Aib]EGTFTSDYSI[Aib]LDKK([AEEA-AEEA-γGlu-C20 diacid])AQKEFVEWLIAGGPSSGAPPPS-NH2; lactam 20-24) | 31 nM | 40 h | 98 h | 4.55 µM·h | 17 h | 14 nM | 1.33 µM·h | > 4.82 h | – | – | – | – | – | – | – | – | 0.0022
